Tested on: anti-OVA IgG antibody response (chicken ovalbumin (OVA) as model antigen)
Assay: In vivo experiment 1: adjuvant activity, anti-OVA IgG antibody production (ELISA of mouse sera)
Set-up: species or system C75BL6 mice
Settings: toxin-free OVA 20 μg + adjuvant 50 μg, three bi-weekly subcutaneous injections, endpoint sera day 42; compared with OVA alone and OVA + prior art compound 13
Protocol: Total IgG values were calculated using chicken ovalbumin (OVA) as a model antigen for four groups of mice treated with the following subcutaneous injections: i) toxin-free OVA antigen (20 μg) in combination with the known QA-based adjuvant 13 (50 μg) (identified as QA+OVA), ii) toxin-free OVA antigen (20 μg) in combination with the new adjuvant 25 (50 μg) (identified as QA(oxime)+OVA), iii) toxin-free OVA (20 μg) alone as no-adjuvant control group (identified as OVA) and iv) PBS only as negative control (identified as PBS).
Quantification of antibody production. Antibody titers against OVA protein, or against MUC1 and TnMUC1 peptides in the case of the self-adjuvanting vaccine constructs. were measured by an indirect enzyme-linked immunosorbent assay (ELISA). […] Absorbance (OD, 450 nm) was immediately measured using a BioTek® Synergy HT multi-detection microplate reader.
A straightforward proof-of-principle in vivo experiment was carried out to directly compare the adjuvant activities of prior art compound 13 and the compound of the invention 25 in terms of IgG antibody production, using chicken ovalbumin (OVA) as a model antigen. […] Endpoint sera after three immunizations were probed via ELISA assays by coating 96-well plates with toxin-free OVA (0.5 μg/ml) and total IgG optical density (OD) values (day 42) were calculated (FIG. 4).

`C[C@H]1O[C@@H](OC2C(OC(=O)[C@]34CCC(C)(C)CC3C3=CCC5C6(C)CC[C@H](O)C(C)(C=NO)[C@@H]6CC[C@@]5(C)[C@]3(C)C[C@@H]4O)O[C@H](CO)[C@H](NC(=O)CCCCCCCCCCC(=O)O)C2O)C(O)C(O)[C@H]1O[C@@H]1OC[C@@H](O)C(O)C1O` (stereo partly shown) [Compound 25] was tested, and the “anti-OVA IgG antibody response (total IgG optical density values)” value was “significantly higher”.

— patent publication US20250092085A1, “SAPONIN-BASED ADJUVANTS AND VACCINES” (ASOCIACIÓN CENTRO DE INVESTIGACIÓN COOPERATIVA EN …, priority 2021, published 2025)
